Targets include HLA-DR DRB1*0405 (DR4) (Homo sapiens, UniProt P01903+P01911, A100R/A169T/D86S/F76Y/I96L/K127E/L162R/M171V/N62H/P40V/Q125Y/R42H/S133A/S149N/S66Y/V115G/V209L/W38E); HLA-DR DRB1*0401 (DR4) (Homo sapiens, UniProt P01903+P01911, A100K/A169T/F76Y/I96L/K127E/L162R/M171V/N62H/P40V/Q125Y/R42H/S133A/S149N/S66Y/V115G/V209L/W38E); HLA-DR DRB1*0101 (DR1) (Homo sapiens, UniProt P01903+P01911, A100R/D57E/F55L/F60I/F76Y/I96L/L162R/M171V/P40L/Q125E/R42F/V115G/Y59C); HLA-DR DRB3*0101 (DR52) (Homo sapiens, UniProt P01903+P79483); HLA-DR DRB1*1501 (DR15) (Homo sapiens, UniProt P01903+P01911); HLA-DR DRB1*1302 (DR13) (Homo sapiens, UniProt P01903+P01911, A100E/A169T/K41T/L162R/M171V/P40S/Q125H/Q178H/Q39Y/Q99D/R42S/S66N/T262R/V115G/W38E/Y61H); HLA-DR DRB1*0701 (DR7) (Homo sapiens, UniProt P01903+P01911, A100R/A102G/A103Q/D57E/D86V/E43K/F76Y/K127E/L162R/M171V/P40G/Q125H/Q99D/R33Q/R42Y/R54Q/S133A/S66F/T210M/V115G/Y107V/Y59L/Y89S); HLA-DR DRB1*0301 (DR3) (Homo sapiens, UniProt P01903+P01911, A100K/A102G/A103R/A169T/F55Y/I96L/K41T/L162R/M171V/P40S/Q125H/Q178H/Q39Y/R42S/S66N/T106N/T262R/W38E/Y61H); HLA-DR DRB1*1101 (DR11) (Homo sapiens, UniProt P01903+P01911, A100R/A169T/A87E/I96F/K41T/L162R/M171V/P40S/Q125H/Q178H/Q39Y/Q99D/R42S/S66Y/T262R/V115G/W38E); HLA-DR DRB4*0101 (DR53) (Homo sapiens, UniProt P01903+P13762, G164S); HLA-DR DRB5*0101 (DR51) (Homo sapiens, UniProt P01903+Q30154); HLA-DR DRB1*0802 (DR8) (Homo sapiens, UniProt P01903+P01911, A100R/A103L/A169T/F76Y/H45Y/I96F/K41T/L162R/M171V/P40S/Q125H/Q178H/Q39Y/Q99D/R218S/R42G/S66Y/V115G/W38E).

What all share (assay): biochemical
What all share (format): binding

The target in another assay is HLA-DR DRB1*0901 (DR9) (Homo sapiens, UniProt P01903+P01911, A100R/A103E/D57H/D86V/F55Y/F60I/F76Y/I96F/K127E/L162R/M171V/P40D/Q125H/Q99R/R33Q/R42F/S133A/S66N/T210M/V115G/W38K/Y107V/Y59G/Y89S). Conditions: DRB1 *0901.

Where two headings read alike, the source gives them in different places. No end group written: not given here.

Sequence of HLA-DR DRB1*1302 (DR13) (P01903 26-254 limits assumed, other chains not shown): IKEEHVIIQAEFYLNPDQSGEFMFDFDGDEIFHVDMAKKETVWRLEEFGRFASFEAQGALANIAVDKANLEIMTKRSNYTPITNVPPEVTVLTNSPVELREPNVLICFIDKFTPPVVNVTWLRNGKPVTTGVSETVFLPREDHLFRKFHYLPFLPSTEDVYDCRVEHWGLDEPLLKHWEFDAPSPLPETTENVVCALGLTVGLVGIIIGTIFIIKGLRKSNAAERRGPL
Sequence of HLA-DR DRB1*0301 (DR3) (P01903 26-254 limits assumed, other chains not shown): as above
Sequence of HLA-DR DRB1*1101 (DR11) (P01903 26-254 limits assumed, other chains not shown): as above

Broadly, the IC50 is the concentration needed to halve the response being measured. High values mean a need for much substance, low ones inhibition by little substance. On to `CC[C@H](C)[C@H](NC(=O)CNC(=O)[C@H](CC(C)C)NC(=O)[C@H](CC(C)C)NC(=O)[C@H](CCCNC(=N)N)NC(=O)[C@H](CO)NC(=O)[C@@H](NC(=O)[C@H](Cc1ccc(O)cc1)NC(=O)[C@@H]1CCCN1C(=O)[C@H](CO)NC(=O)CNC(=O)[C@@H](NC(=O)CN)C(C)C)C(C)C)C(=O)N[C@@H](CS)C(=O)N[C@@H](CC(C)C)C(=O)O`, for which the half-inhibitory concentration (IC50) on HLA-DR DRB1*0405 (DR4) (DRB1 *0405) worked out at 4.16 µM; against HLA-DR DRB1*0401 (DR4) (DRB1 *0401), 1.57 µM; against HLA-DR DRB1*0101 (DR1) (DRB1 *0101), 0.019 µM; against HLA-DR DRB3*0101 (DR52) it was 149 µM; against HLA-DR DRB1*1501 (DR15) (DRBI *1501) it was 0.046 µM; against HLA-DR DRB1*1302 (DR13) (DRBI *1302), 0.955 µM. The IC50 against HLA-DR DRB1*0901 (DR9) was 2.61 µM; on HLA-DR DRB1*0701 (DR7) (DRB1 *0701), 0.19 µM; against HLA-DR DRB1*0301 (DR3) it was 168 µM; on HLA-DR DRB1*1101 (DR11) (DRB1 *1101) it was 0.696 µM.
Consider GAPLGGAARAAAHGV, for which the 50% inhibitory concentration (IC50) was more than 3.37 µM against HLA-DR DRB1*0405 (DR4); 41.4 µM on HLA-DR DRB4*0101 (DR53); 25.3 µM at HLA-DR DRB1*0401 (DR4); more than 51.1 µM on HLA-DR DRB3*0101 (DR52); more than 8.67 µM against HLA-DR DRB1*1501 (DR15); more than 23.5 µM at HLA-DR DRB1*1302 (DR13). The IC50 is 31.3 µM against HLA-DR DRB1*0701 (DR7), 378 µM on HLA-DR DRB1*0301 (DR3), 3.63 µM against HLA-DR DRB1*1101 (DR11) and 42.5 µM against HLA-DR DRB5*0101 (DR51).
As to GAPLAGAARALAHGV, the half-maximal inhibitory concentration (IC50) on HLA-DR DRB1*0405 (DR4) was more than 13 µM; against HLA-DR DRB4*0101 (DR53), 2.96 µM; against HLA-DR DRB1*0401 (DR4), 39.9 µM; at HLA-DR DRB3*0101 (DR52), more than 71 µM; at HLA-DR DRB1*1501 (DR15), 2.81 µM; on HLA-DR DRB1*1302 (DR13) it was 7.21 µM. The IC50 against HLA-DR DRB1*0701 (DR7) stood at 8.18 µM; at HLA-DR DRB1*0301 (DR3), 2.98 µM; at HLA-DR DRB1*1101 (DR11), 0.0095 µM; on HLA-DR DRB5*0101 (DR51), 7.69 µM.
As to RPIVNMDYVVGARTFRREKR, the half-maximal inhibitory concentration (IC50) was 0.812 µM against HLA-DR DRB1*0405 (DR4) (DRB1 *0405); 0.16 µM against HLA-DR DRB4*0101 (DR53) (DRB4 *0101); 0.0031 µM against HLA-DR DRB1*0401 (DR4) (DRB1 *0401); 0.748 µM against HLA-DR DRB1*0802 (DR8); 0.029 µM on HLA-DR DRB1*0101 (DR1) (DRB1 *0101); 3.32 µM against HLA-DR DRB3*0101 (DR52). Further, the IC50 against HLA-DR DRB1*1501 (DR15) (DRBI *1501) amounted to 0.043 µM; on HLA-DR DRB1*1302 (DR13) (DRBI *1302), 0.073 µM; against HLA-DR DRB1*0701 (DR7) (DRB1 *0701), 0.346 µM; at HLA-DR DRB1*0301 (DR3), 0.022 µM; at HLA-DR DRB5*0101 (DR51) (DRB5 *0101), 0.0066 µM.
EMLQNIFAIFRQDSS: the IC50 against HLA-DR DRB1*0405 (DR4) (DRB1 *0405) was 0.456 µM; at HLA-DR DRB4*0101 (DR53) (DRB4 *0101), 0.164 µM; against HLA-DR DRB1*0401 (DR4) (DRB1 *0401), 0.685 µM; at HLA-DR DRB1*0101 (DR1) (DRB1 *0101) it was 0.395 µM; at HLA-DR DRB3*0101 (DR52), 0.726 µM; on HLA-DR DRB1*1501 (DR15) (DRBI *1501), 1.72 µM. For the same molecule, the half-inhibitory concentration (IC50) on HLA-DR DRB1*1302 (DR13) (DRBI *1302) is 0.061 µM; against HLA-DR DRB1*0901 (DR9), 9.74 µM; on HLA-DR DRB1*0701 (DR7) (DRB1 *0701), 3.31 µM; against HLA-DR DRB1*0301 (DR3), 9.54 µM; at HLA-DR DRB1*1101 (DR11) (DRB1 *1101), 36.8 µM; at HLA-DR DRB5*0101 (DR51) (DRB5 *0101), 3.19 µM.
As to VGGVYLLPARGPRLGV, the concentration for half-maximal inhibition (IC50) came to 4.58 µM against HLA-DR DRB1*0405 (DR4); 19 µM against HLA-DR DRB4*0101 (DR53); 0.012 µM against HLA-DR DRB1*0101 (DR1); 18.1 µM on HLA-DR DRB3*0101 (DR52); 0.0065 µM on HLA-DR DRB1*1501 (DR15); 0.201 µM against HLA-DR DRB1*1302 (DR13). Also, the IC50 is 0.049 µM against HLA-DR DRB1*0701 (DR7), 68.1 µM against HLA-DR DRB1*0301 (DR3), 0.694 µM against HLA-DR DRB1*1101 (DR11) and 0.04 µM on HLA-DR DRB5*0101 (DR51).
As to VGGVYLAPRRGPRLGV, the IC50 at HLA-DR DRB1*0405 (DR4) was more than 12.2 µM; against HLA-DR DRB4*0101 (DR53), more than 42.1 µM; against HLA-DR DRB1*0401 (DR4), 33.7 µM; at HLA-DR DRB1*0101 (DR1), 0.746 µM; at HLA-DR DRB3*0101 (DR52), more than 66.5 µM; on HLA-DR DRB1*1501 (DR15), 0.055 µM. For the same molecule, the IC50 is more than 15.4 µM on HLA-DR DRB1*1302 (DR13); 0.878 µM against HLA-DR DRB1*0701 (DR7); 203 µM at HLA-DR DRB1*0301 (DR3); 0.035 µM against HLA-DR DRB1*1101 (DR11); 0.076 µM against HLA-DR DRB5*0101 (DR51).
As to HIEFTPTRTDTYACRV, the half-maximal inhibitory concentration (IC50) on HLA-DR DRB1*0405 (DR4) (DRB1 *0405) was 10 µM; on HLA-DR DRB1*0401 (DR4) (DRB1 *0401), 30 µM; at HLA-DR DRB1*0802 (DR8), more than 12.5 µM; at HLA-DR DRB3*0101 (DR52) it was more than 7.14 µM; against HLA-DR DRB1*1101 (DR11) (DRB1 *1101), not below 200 µM; against HLA-DR DRB5*0101 (DR51) (DRB5 *0101), not below 200 µM.
